# Reference: patent US20140112882A1, “Methods to treat pancreatic inflammation and associated lung injury through regulation of pancreatic interleukin-22 expression” (The Board of Trustees of the Leland Stanford Junior …, priority 2012, published 2014)
# Tests used:
# pancreatic IL-22 = assay: Pancreatic IL-22 production in mice (flow cytometry of pancreatic leukocytes, ELISA); type: in vivo, Balb/c mice; conditions: day 3, vs vehicle
# Protocol: (§1) Mice were given PBS or recombinant IL-22 (200 ng/mouse, 1 ng/μl, Miltenyi Biotech) intra-peritoneally at 24 h after onset of CDE-diet-induced acute pancreatitis. For experiments involving anti-IL-22 mAb, mice were treated with 1 μg of either anti-IL-22 or isotype control mAb (R&D Systems) at indicated times. CH-223191 (100 μg/mouse, 0.5 μg/μl, Sigma-Aldrich) was dissolved in DMSO and Biliverdin hydrochloride (35 mg/kg, Frontier Scientific) in 20 mM NaOH adjusted to pH of 7.0. CH-223191, Biliverdin hydrochloride, or vehicle control were used to treat normal mice or mice undergoing AP at indicated times.
# Mouse pancreata were isolated and frozen immediately in liquid nitrogen. Total tissue and primary pancreatic acinar cells, isolated as described below, were homogenized in RIPA buffer containing protein inhibitors and analyzed by western blot as described previously (Nakamichi et al., 2005; Xue et al., 2010). […] Supernatant from pancreas homogenate was analyzed using ELISA kit for mouse IL-22 (Biolegend). […]
# For surface staining, cells were stained with the following antibodies (Biolegend): AF700 or FITC CD45.2, PE/Cy7-CD3, PE/Cy7-CD19, APC/Cy7-CD4, FITC-CD90, Percp/Cy5.5-CD11b, APC-Sca-1, PB-CD11c, APC/Cy7-NK1.1 and APC-NKp46. […] Flow cytometry data collection was performed on Fortessa LSRII (BD Biosciences) and analyzed using FlowJo software (Tree Star, Inc.).
# [1] = tested on: CDE-induced acute pancreatitis; assay: CDE-diet-induced acute pancreatitis model; type: in vivo, Balb/c mice
# Protocol: (§2) Mice including Balb/c, C57B6/J and AhR^d were purchased from Jackson laboratory and housed under pathogen-free conditions. All animal experiments were approved by Stanford University institutional animal care and use committees. Acute pancreatitis models. For caerulein-induced pancreatitis, age and sex matched mice were fasted for 12-16 hours. Mice then received 7 hourly intra-peritoneal injections of saline (control) or 50 μg/kg caerulein in saline and followed up to 12 h or indicated times. For the choline-deficient diet supplemented with DL-ethionine (CDE-diet) model of pancreatitis, young female mice (16-20 g) were fasted then fed a choline-deficient diet (Harlan Teklad) supplemented with 0.5% DL-ethionine (Sigma-Aldrich) or normal chow (control group) (Habtezion et al. (2011), Nakamichi et al., 2005).
# as §1
# Mice were euthanized by CO2 inhalation. Pancreata and other tissues were rapidly removed. Pancreas and lung pieces were immediately fixed in 10% formalin and embedded in paraffin. Fixed tissues were sectioned and stained with hematoxylin and eosin (H&E; performed by Histo-Tec Laboratory). The severity of pancreatitis and lung injury were scored blindly as described previously (Habtezion et al. (2011), Nakamichi et al., 2005). Other pancreas pieces were frozen in Tissue-Tek OCT compound and sectioned for fluorescence staining Immunofluorescence staining for p-STAT3 (Cell Signaling) and DAPI (nuclei) was performed according to manufacturer's guidelines. TUNEL assay was performed according to the manufacturer's instructions (ApopTag® Red In Situ Apoptosis Detection Kit, Millipore).
# Blood was collected by intracardiac puncture, and serum was isolated for subsequent lipase level determination by diagnostic laboratory at Stanford University. Lung tissues were collected and MPO assay performed according to manufacture's guidelines (Biovision).
# (§3) Mouse pancreata were isolated and frozen immediately in liquid nitrogen. Total tissue and primary pancreatic acinar cells, isolated as described below, were homogenized in RIPA buffer containing protein inhibitors and analyzed by western blot as described previously (Nakamichi et al., 2005; Xue et al., 2010). IL-22RA1 and cleaved caspase-3 antibodies were purchased from Abcam and Cell Signaling, respectively. Supernatant from pancreas homogenate was analyzed using ELISA kit for mouse IL-22 (Biolegend).
# pancreatic acinar cells = assay: pSTAT3 induction in isolated primary pancreatic acinar cells (western blot); type: cell-based, Balb/c mice; conditions: 10 ng/ml for 0-30 min; 0-100 ng/ml for 15 min
# Protocol: as §3
# (§4) Mice were sacrificed and pancreata removed carefully by trimming fat and mesentery. Dispersed pancreatic acinar cells were isolated using a collagenase digestion method described previously (Menozzi et al. 1990). Isolated primary pancreatic acinar cells were treated in vitro with either rIL-22 or vehicle control (PBS) for up to 4 hours following isolation. Pancreatic leukocytes were prepared with minor modifications of the method developed by Hawkins (Hawkins et al., 1996). Briefly, 3-4 pancreata were pooled together and minced with scissors, then washed twice with buffer A (HBSS+10% FCS). The tissue was resuspended in buffer A containing 2 mg/ml collagenase type IV (Sigma-Aldrich) and incubated in a shaker at 37° C. for 15 min. […]
# STAT3 = STAT3 phosphorylation in tissues after systemic rIL-22 (western blot, immunofluorescence); type: in vivo, Balb/c mice; conditions: rIL-22 200 ng/mouse systemically; 1 h; compared to other tissues
# Protocol: as §1
# (§5) Mice were euthanized by CO2 inhalation. Pancreata and other tissues were rapidly removed. […] The severity of pancreatitis and lung injury were scored blindly as described previously (Habtezion et al. (2011), Nakamichi et al., 2005). Other pancreas pieces were frozen in Tissue-Tek OCT compound and sectioned for fluorescence staining Immunofluorescence staining for p-STAT3 (Cell Signaling) and DAPI (nuclei) was performed according to manufacturer's guidelines. […]
# Mouse pancreata were isolated and frozen immediately in liquid nitrogen. Total tissue and primary pancreatic acinar cells, isolated as described below, were homogenized in RIPA buffer containing protein inhibitors and analyzed by western blot as described previously (Nakamichi et al., 2005; Xue et al., 2010). […]
# [2] = tested on: primary pancreatic acinar cells; assay: Spontaneous apoptosis of primary pancreatic acinar cells in vitro (cleaved caspase-3 western blot); type: cell-based, mice; conditions: rIL-22 for 2 h or 4 h in vitro; vs PBS
# Protocol: as §3, §4
# [3] = tested on: RegIII genes, SAA3, β-defensin2, IL-22RA1 in pancreas; assay: Quantitative PCR of pancreas mRNA 24 h after rIL-22; type: in vivo, Balb/c mice; conditions: 200 ng/mouse i.p., vs PBS
# Protocol: Pancreatic tissue was lysed with Trizol reagent (Invitrogen) for total RNA preparation according to manufacturer's instructions. Briefly, cDNA was generated using GoScript reverse transcription system (Promega). Quantitative PCR was performed with an ABI-7900 Sequence Detection System (Applied Biosystems) using designed specific TaqMan probes and primers as follows: RegIIIβ (Forward, 5′-[…]-3′; Reverse, 5′-[…]-3′; Probe, 5′-[…]-3′); RegIIIγ (Forward, 5′-[…]-3′; Reverse, 5′-TGGGTTCATAGCCCAGTGT-3′; Probe, 5′-[…]-3′); β-defensin2 (Forward, 5′-[…]-3′; Reverse, 5′-[…]-3′; Probe, 5′-[…]-3′); SAA3 (Forward, 5′-[…]-3′; Reverse, 5′-[…]-3′; Probe, 5′-[…]-3′); IL-22RA1 (Forward, 5′-[…]-3′; Reverse, 5′-[…]-3′; Probe, 5′-[…]-3′).
# [4] = tested on: caerulein-induced acute pancreatitis; assay: Caerulein-induced acute pancreatitis in AhR non-responsive (AhR^d) mice; type: in vivo, AhR^d mice (C57BL/6 background); conditions: rIL-22 single dose 200 ng/mouse, vs vehicle control
# Protocol: as §2
# as §5, with “removed. Pancreas and lung pieces were immediately fixed in 10% formalin and embedded in paraffin.” for “removed.”
# [5] = 200 ng/mouse 24 h after CDE feeding, 60 h, vs PBS
compound,measurement,setting,value
"Cc1ccccc1N=Nc1ccc(NC(=O)c2ccnn2C)c(C)c1 [CH-223191, 2-methyl-2H-pyrazole-3-carboxylic acid (2-methyl-4-o tolylazo-phenyl)-amide, reference compound]",Frequency of IL-22-expressing leukocytes in the pancreas,"pancreatic IL-22; 100 μg/mouse on two consecutive days, flow cytometry and ELISA",markedly decreased
same,Mortality,"[1]; pretreated before CDE feeding, by day 3, relative to control treated mice",increased mortality
same,"Severity of acute pancreatitis (serum lipase, H&E, histologic score)","[1]; pretreated daily for two days before CDE feeding, analyzed at day 2, vs vehicle",considerably more severe acute pancreatitis
"rIL-22: recombinant IL-22 (Miltenyi Biotech), cytokine of the IL-10 family",pSTAT3 induction in pancreatic acinar cells,pancreatic acinar cells,induced by rIL-22 in pancreatic acinar cells in a time and dose dependent manner
same,STAT3 activation (p-STAT3) in the pancreas,STAT3,Significant STAT3 activation
same,Spontaneous apoptosis of acinar cells (cleaved caspase-3),[2],delayed spontaneous apoptosis
same,IL-22RA1 mRNA expression in pancreas,[3],no significant induction
same,RegIIIβ (PAP1) mRNA expression in pancreas,[3],stimulated the expression
same,RegIIIγ (PAP3) mRNA expression in pancreas,[3],stimulated the expression
same,SAA3 mRNA expression in pancreas,[3],no significant induction
same,β-defensin2 mRNA expression in pancreas,[3],no significant induction
same,Blinded lung histology score,"[1]; 200 ng/mouse 24 h after CDE feeding, 60 h, mean±SEM, P=0.028 vs control",1.6±0.24
same,Lung myeloperoxidase (MPO) levels,[1]; [5],significantly reduced
same,Morphologic evidence of lung injury,[1]; [5],significantly reduced
same,"Pancreatitis severity, histologic examination and blinded scoring of pancreata","[1]; 200 ng/mouse 24 h after CDE feeding, 60 h, vs vehicle",less severe pancreatitis
same,Serum lipase levels,"[1]; 200 ng/mouse i.p. 24 h after CDE feeding, harvest at 60 h, vs PBS",significantly lower
same,Pancreatic IL-22 level by ELISA after systemic administration,[1]; 60 h following CDE feeding,Effective reconstitution
same,Mortality,"[1]; rIL-22 24 h after CDE feeding, followed to 72 h, vs PBS",lower mortality
same,Apoptosis in pancreas (TUNEL assay),"[1]; rIL-22 24 h after CDE feeding, pancreas at 60 h",significantly reduced apoptosis
same,Pancreatic injury (H&E),[4],decrease
same,Serum lipase levels,[4],decrease
"C=CC1=C(C)/C(=C/C2=NC(=C\c3[nH]c(/C=C4\NC(=O)C(C)=C4C=C)c(C)c3CCC(=O)O)/C(CCC(=O)O)=C2C)NC1=O [biliverdin, reference compound]",Pancreatic IL-22,"pancreatic IL-22; biliverdin 35 mg/kg on day 1 and 2, ELISA and flow cytometry",significant increase
same,"Protection against acute pancreatitis (serum lipase, histologic assessment)","[1]; single dose 24 h after CDE-diet feeding, sacrificed at 60 h, vs vehicle",protected against acute pancreatitis
